Measurements: PubChem BioAssay (NCI)
Values joined by “and” are separate entries in the source; they are usually repeats but may differ in a detail not shown here. Equal entries are not always repeated.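 Method: 48-hour compound exposure of cells in 96-well plates, five concentrations, linear interpolation of endpoints. At the GI50, growth is halved. TGI: concentration producing complete growth inhibition.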

What was measured:
Assay in all cases: NCI tumour cell line growth inhibition, 48 h
SK-MEL-2 melanoma = test system: SK-MEL-2 melanoma
SN12C renal = test system: SN12C renal
M14 melanoma = test system: M14 melanoma
RXF 393 renal = test system: RXF 393 renal
A498 renal = test system: A498 renal
SF-539 CNS = test system: SF-539 CNS
SNB-19 CNS = test system: SNB-19 CNS
HCT-15 colon = test system: HCT-15 colon
SW-620 colon = test system: SW-620 colon
LOX IMVI melanoma = test system: LOX IMVI melanoma

| Structure (SMILES) | GI50 (SK-MEL-2 melanoma) | TGI (SK-MEL-2 melanoma) | GI50 (SN12C renal) | TGI (SN12C renal) | GI50 (M14 melanoma) | TGI (M14 melanoma) | GI50 (RXF 393 renal) | TGI (RXF 393 renal) | GI50 (A498 renal) | TGI (A498 renal) | GI50 (SF-539 CNS) | TGI (SF-539 CNS) | GI50 (SNB-19 CNS) | TGI (SNB-19 CNS) | GI50 (HCT-15 colon) | TGI (HCT-15 colon) | GI50 (SW-620 colon) | TGI (SW-620 colon) | GI50 (LOX IMVI melanoma) | TGI (LOX IMVI melanoma) |
| --- | --- | --- | --- | --- | --- | --- | --- | --- | --- | --- | --- | --- | --- | --- | --- | --- | --- | --- | --- | --- |
| CC1CCN(Cc2ccc(NC(=O)c3cc4ccc5cccnc5c4[nH]3)cc2)CC1 | 2.45 µM | 6.2 µM | 7.9 µM | 29.4 µM | 2.05 µM | 4.08 µM | 2.18 µM | 6.26 µM | 2.42 µM | 12.9 µM | 1.94 µM | 4.01 µM | 13.1 µM | 27.6 µM | 3.07 µM | 18.5 µM | 3.4 µM | 16.6 µM | – | – |
| N#Cc1c(NCc2ccccc2)nc(NCc2ccccc2)c(C#N)c1-c1ccc(O)cc1 | 41.1 µM | 90.7 µM | 5.99 µM | 53.2 µM | 29.9 µM | > 100 µM | 39.1 µM | > 100 µM | 24.9 µM | 63.5 µM | 13.1 µM | 37.4 µM | 50.5 µM | > 100 µM | 29.6 µM | > 100 µM | 36.1 µM | > 100 µM | 16.7 µM | 41.4 µM |
| O=C(Nc1ccc(Cc2ccccc2)cc1)Nc1nn(C(=O)Nc2ccc(Cc3ccccc3)cc2)c2ccccc12 | > 100 µM | > 100 µM | > 100 µM | > 100 µM | > 100 µM | > 100 µM | 30.4 µM | > 100 µM | 82.4 µM | > 100 µM | > 100 µM | > 100 µM | > 100 µM | > 100 µM | > 100 µM | > 100 µM | > 100 µM | > 100 µM | 71 µM | > 100 µM |
| CCCCC(CCCCCC(CCCC)NCc1ccc2c(c1)OCO2)NCc1ccc2c(c1)OCO2 (stereo not drawn) | 0.336 µM | 0.835 µM | 1.42 µM | 2.96 µM | 0.182 µM | 0.324 µM | 0.213 µM | 0.413 µM | 1.49 µM | 2.83 µM | 0.664 µM | 1.48 µM | 1.3 µM | 2.59 µM | 0.326 µM | 1.09 µM | 0.206 µM | 0.437 µM | 0.22 µM | 0.581 µM |
| COc1cc2c3cc1Oc1c(OC)c(OC)cc4c1C(=NCC4)Cc1ccc(cc1)Oc1cc(ccc1O)C[C@H]3N(C)CC2 | – | 31.1 µM | – | 75.2 µM | – | 29.8 µM | – | 24.9 µM | – | 36.7 µM | – | 27.9 µM | – | 61.6 µM | – | 25.9 µM | – | 36.7 µM | – | 25.1 µM |
| COC(=O)c1ccc2c(c1)C(=O)c1c-2n(CCCCl)c(=O)c2cc([N+](=O)[O-])ccc12 | > 100 µM | > 100 µM | > 100 µM | > 100 µM | 82.5 µM | > 100 µM | > 100 µM | > 100 µM | > 100 µM | > 100 µM | 83.6 µM | > 100 µM | 56.6 µM | > 100 µM | > 100 µM | > 100 µM | 44.6 µM | > 100 µM | 40.9 µM | > 100 µM |
| CSCS(=O)C[C@H](CO)NC(=O)/C=C/c1c(C)[nH]c(=O)[nH]c1=O (stereo partly drawn) | 1.65 µM | 4.59 µM and 2.75 µM | 1.46 µM | 7.79 µM and 5.49 µM | – | 2.79 µM | 1.28 µM | 3.7 µM and 2.97 µM | 0.434 µM | 2 µM and 2.06 µM | 1.2 µM | 4.1 µM and 2.66 µM | 0.605 µM | 8.35 µM and 5.11 µM | 2.93 µM | 13.6 µM and 6.92 µM | 3.35 µM | > 54.6 µM and 25.4 µM | 0.449 µM | 2.07 µM and 3.87 µM |
| O=C(Nc1cccc2c1C(=O)c1c(NC(=O)c3ccccc3)ccc(Nc3cccc4c3C(=O)c3ccccc3C4=O)c1C2=O)c1ccccc1 | – | > 100 µM | – | > 100 µM | – | > 100 µM | – | > 100 µM | – | > 100 µM | – | > 100 µM | – | > 100 µM | – | > 100 µM | – | > 100 µM | – | – |
| COC(=O)c1ccccc1N(C(=O)c1ccccc1)c1ccccc1C | – | > 100 µM | – | > 100 µM | – | 73.1 µM | – | 92.1 µM | – | 80.1 µM | – | – | – | > 100 µM | – | > 100 µM | – | > 100 µM | – | > 100 µM |
| CCCCCOCC(O)CO (stereo not drawn) | – | > 100 µM | – | > 100 µM | – | – | – | > 100 µM | – | > 100 µM | – | > 100 µM | – | > 100 µM | – | > 100 µM | – | > 100 µM | – | > 100 µM |
| NC(N)=NCC1CCCCCCN1 (stereo not drawn) | – | > 100 µM | – | > 100 µM | – | > 100 µM | – | > 100 µM | – | > 100 µM | – | > 100 µM | – | > 100 µM | – | > 100 µM | – | > 100 µM | – | – |
| Oc1ccc(O)c(-c2cn3c(n2)SCC3)c1 | 78.8 µM | > 100 µM | 13.9 µM | 29.2 µM | 15.5 µM | 31.3 µM | 18.4 µM | 36.2 µM | 20.9 µM | 75.7 µM | – | – | 21.3 µM | 45.4 µM | 19.1 µM | 36.9 µM | 3.19 µM | 8.17 µM | 17.5 µM | 31.5 µM |
| CCCCCCCCCCCCCCCC1=NCCN1 | 2.36 µM | 4.87 µM | 2.07 µM | 4.29 µM | – | – | 1.75 µM | 3.38 µM | 2.14 µM | 6.14 µM | 1.89 µM | 3.6 µM | – | – | 1.61 µM | 3.24 µM | 1.9 µM | 3.77 µM | – | – |
| BrC(Br)=C1C(=C(Br)Br)C(Br)C1Br (stereo not drawn) | – | 7.7 µM | – | 2.31 µM | – | 0.592 µM | – | 0.948 µM | – | 3.38 µM | – | – | – | 15.5 µM | – | 1.73 µM | – | 1 µM | – | 1.03 µM |
| CN1CN(C2OC(CO)C(O)C2O)c2nc(N)[nH]c(=O)c21 (stereo not drawn) | – | > 100 µM | – | > 100 µM | – | > 100 µM | – | > 100 µM | – | > 100 µM | – | > 100 µM | – | > 100 µM | – | > 100 µM | – | > 100 µM | – | – |
